Values of other authors in US20090017243A1, “Conveyor lubricant, passivation of a thermoplastic container to stress cracking and thermoplastic stress crack inhibitor” (Ecolab Inc., priority 1999, published 2009).

Conditions: 96 wt. % solution of glycerol in water

specific gravity: 1.25
Structure (SMILES): OCC(O)CO [glycerol]
